Experimental data as given in patent US8530183B2, “Zinc sensors for cellular imaging” (The Board of Regents of the University of Texas System, priority 2010, dated 2013).
“Also recorded” adds a separate entry of the source.

Experiments:
MIN6 cells = test: Epifluorescence ZIMIR imaging of KCl-stimulated insulin/Zn2+ release; type: cell-based, mouse; details: KCl 40 mM
Description: FIGS. 6A-E. ZIMIR imaging of insulin/Zn^2+ release. (FIGS. 6A-E) KCl stimulated insulin/Zn^2+ release in MIN6 cells. Example images of MIN6 cells (FIG. 6A, DIC/Normasky) before (FIG. 6B) and after KCl (40 mM, C) or Zn^2+ addition (1 μM, D). Time courses of ZIMIR signal changes (F/F0) in two example regions of interest (ROI, indicated in D by dashed lines) along the plasma membrane.
Cell culture and ZIMIR imaging by wide field fluorescence microscopy. Details of cell culture are described below. For cell imaging, we cultured cells in 35 mm petri dishes with glass-bottoms (MatTek, Ashland, Mass.). […] To image insulin/Zn^2+ secretion, we routinely included 10 μM of EDTA in SAB to chelate the residual Zn^2+ and to reduce the baseline fluorescence. […]
Membrane ZIMIR fluorescence intensity was measured by drawing regions of interest (ROIs) along the plasma membrane, and its time course was normalized against its baseline value after background subtraction, i.e., (F-Fbkg)/(F0-Fbkg), where Fbkg is the average background fluorescence intensity of a nearby area containing no cells. […] Wide field fluorescence microscopy was carried out on inverted fluorescence microscopes as described (Guo et al., 2008).
ZIMIR imaging by wide field fluorescence microscopy. […]

INS-1 cells = test: Response of membrane-anchored ZIMIR to extracellular Zn2+ and decay upon Zn2+ washout; type: cell-based, rat
Description: FIGS. 5A-B. Membrane anchored ZIMIR reports changes of [Zn^2+]e. (FIG. 5A) Example fluorescence images (Excitation 488±7.5 nm, emission 530±20 nm) of INS-1 cells labeled with ZIMIR at different [Zn^2+]e. (FIG. 5B) Quantification of the average ZIMIR fluorescence intensity along the plasma membrane (IZIMIR(PM)).
(FIG. 7A) Time courses of IZIMIR(PM) decay after washing INS-1 cells (initially bathed in FIBS containing 1 μM Zn^2+) with HBS containing EDTA (10 μM) and DPAS (0-8 μM). (FIG. 7B) ZIMIR imaging of insulin/Zn^2+ release of MIN6 cells bathed in SAB containing EDTA (10 μM) and DPAS (4 μM). Time courses of IZIMIR(PM) fluctuation of four separate regions of interest (ROI 1-4) and example ZIMIR images at different time points were shown (a-e; arrow heads highlighting local ZIMIR increases in separate ROIs at different time).
To characterize the response of membrane anchored ZIMIR to changes of extracellular Zn^2+ concentration ([Zn^2+]), the inventors varied [Zn^2+]e from low nanomolar to micromolar, using Zn^2-1 buffers containing nitrilotriacetic acid (for [Zn^2+]e<100 nM) (Hirano et al., 2000) or histidine (for [Zn^2+]e. 100 nM) (Hauser and Tsien, 2007). After recording fluorescence images at different [Zn^2+]e levels, the inventors washed cells with a nominally Zn^2+ free SAB containing 0.2 mM DPAS and followed the decay of IZIMIR(PM).
Upon membrane depolarization, ZIMIR signal increased immediately and reached a plateau before it gradually declined (FIGS. 6E-F). Unexpectedly, however, in some occasions, ZIMIR signal remained elevated even after the inventors lowered KCl concentration to the resting level (5 mM) (FIG. 9). […] In INS-1 beta cells labeled with ZIMIR, after recording ZIMIR fluorescence in solutions containing ˜1 μM of Zn2+, the inventors perifused cells with a nominally Zn^2+-free solution containing only EDTA (10 μM), or with both EDTA (10 μM) and different concentrations of DPAS.

cultured mammalian cells = test: Growth rate of ZIMIR-labeled cells versus unlabeled cells (cytotoxicity); type: cell-based; details: over the next several days after labeling

For `CCCCCCCCCCCCN(CC(=O)O)Cc1c2oc3c(CN(CCCCCCCCCCCC)CC(=O)O)c(O)ccc3c(-c3cc(NCCN(CCc4ccccn4)Cc4ccccn4)ccc3C(=O)O)c-2ccc1=O` [ZIMIR], the “ZIMIR fluorescence change upon KCl stimulation” value (MIN6 cells) was “robust enhancement in ZIMIR fluorescence”, the “decaying half lifetime of membrane ZIMIR signal upon Zn^2+ washout” value (INS-1 cells; INS-1 cells, EDTA 10 μM only, absence of DPAS) was 2.723 min and the “ZIMIR fluorescence along the plasma membrane (IZIMIR(PM)) versus [Zn^2+]e” value (INS-1 cells; [Zn^2+]e varied from nanomolar to micromolar) was “stepwise increase with incremental level of [Zn^2+]e”. The “growth rate of labeled cells / cytotoxicity” value (cultured mammalian cells) was “same growth rate as unlabeled cells; also recorded: very little cytotoxicity”.
